Consider two molecules from ChEMBL document CHEMBL1147399, “Two new sesquiterpene lactones from Ceiba pentandra” (1993).

Each structure is given as a SMILES string. Converted amounts (≈) assume the structure as drawn.

What all share (format): functional
The test system of one experiment is Escherichia coli. As to the kind of experiment: Antibacterial activity against Escherichia coli ATCC 10536.
The subject of a further experiment is Klebsiella pneumoniae. As to the kind of experiment: Antibacterial activity against Klebsiella pneumoniae ATCC 13883.
The subject of another experiment is Aspergillus niger. As to the kind of experiment: Antifungal activity against Aspergillus niger NRRL 530.
Another experiment concerns Candida albicans. As to the kind of experiment: Antifungal activity against Candida albicans ATCC 10231.
In a further experiment the test system is Staphylococcus aureus. As to the kind of experiment: Antibacterial activity against Staphylococcus aureus ATCC 6538.
For the next experiment, the system named is Bacillus subtilis. As to the kind of experiment: Antibacterial activity against Bacillus subtilis ATCC 6633.

The MIC is the smallest concentration in the dilution series that meets the test's criterion for growth inhibition. Read a high MIC as weaker potency. Consider `COc1cc(C(C)C)c2cc(C)c(OC)c3c2c1C(=O)O3`, for which the minimal inhibitory concentration (MIC) against Escherichia coli is more than 1000 µg/mL; in the experiment with Klebsiella pneumoniae it was more than 1000 µg/mL; against Aspergillus niger it was 200 µg/mL (≈ 699 µM); with Candida albicans, 175 µg/mL (≈ 611 µM); with Staphylococcus aureus, 275 µg/mL (≈ 960 µM); in the experiment on Bacillus subtilis, 250 µg/mL (≈ 873 µM).
As to `COc1cc(C(C)C)c2cc(C)c(O)c3c2c1C(=O)O3`, the MIC with Escherichia coli was more than 1000 µg/mL; against Klebsiella pneumoniae, more than 1000 µg/mL; with Aspergillus niger, 250 µg/mL (≈ 918 µM); in the experiment with Candida albicans, 225 µg/mL (≈ 826 µM); in the experiment on Staphylococcus aureus, 300 µg/mL (≈ 1100 µM); in the experiment on Bacillus subtilis, 350 µg/mL (≈ 1290 µM).
